This is an account of results in patent US12180193B2, “Accelerating fibrosarcoma protein degrading compounds and associated methods of use” (Arvinas Operations, Inc., priority 2020, dated 2024).

One experiment addresses T1, BRAF V600E (Homo sapiens, UniProt P15056, V600E).
T1 construct: expressed in transfected cells
In words: Cellular assay of target protein degradation, T-Rex 293 cells stably transfected with HA-BRAF_V600E (HA immunofluorescence, high content imaging). The experiment is classed as cell-based. The conditions noted are these: T-Rex 293 HA-BRAF V600E; for DC50: half maximal degradation, read-out: BRaf V600E DC50; for Dmax: maximum degradation observed. The procedure, abridged:
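Degradation of the HA-tagged construct is measured after 24 h treatment at 37 °C across 1 μM to 0.1 nM in 0.1% DMSO, in doxycycline-induced (1 ng/mL) cells. DC50 and Dmax come from HA fluorescence imaging.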

The next experiment addresses T2, BRAF G466V (Homo sapiens, UniProt P15056, G466V).
T2 construct: expressed in transfected cells
In words: Cellular assay of target protein degradation, T-Rex 293 cells stably transfected with HA-BRAF G466V (HA immunofluorescence, high content imaging). Format: cell-based. The conditions noted are these: T-Rex 293 HA-BRAF G466V; for DC50: half maximal degradation, read-out: BRaf G466V DC50; for Dmax: maximum degradation observed. The procedure, abridged:
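Dose range spans 30 nM to 3 pM (0.1% DMSO) over 24 hours at 37° C, in cells induced with 0.75 ng/mL doxycycline. Fixed cells are probed with anti-HA antibody overnight at 4° C, then imaged; half-maximal degradation and maximum degradation are derived.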

T2 sequence (P15056 whole entry G466V): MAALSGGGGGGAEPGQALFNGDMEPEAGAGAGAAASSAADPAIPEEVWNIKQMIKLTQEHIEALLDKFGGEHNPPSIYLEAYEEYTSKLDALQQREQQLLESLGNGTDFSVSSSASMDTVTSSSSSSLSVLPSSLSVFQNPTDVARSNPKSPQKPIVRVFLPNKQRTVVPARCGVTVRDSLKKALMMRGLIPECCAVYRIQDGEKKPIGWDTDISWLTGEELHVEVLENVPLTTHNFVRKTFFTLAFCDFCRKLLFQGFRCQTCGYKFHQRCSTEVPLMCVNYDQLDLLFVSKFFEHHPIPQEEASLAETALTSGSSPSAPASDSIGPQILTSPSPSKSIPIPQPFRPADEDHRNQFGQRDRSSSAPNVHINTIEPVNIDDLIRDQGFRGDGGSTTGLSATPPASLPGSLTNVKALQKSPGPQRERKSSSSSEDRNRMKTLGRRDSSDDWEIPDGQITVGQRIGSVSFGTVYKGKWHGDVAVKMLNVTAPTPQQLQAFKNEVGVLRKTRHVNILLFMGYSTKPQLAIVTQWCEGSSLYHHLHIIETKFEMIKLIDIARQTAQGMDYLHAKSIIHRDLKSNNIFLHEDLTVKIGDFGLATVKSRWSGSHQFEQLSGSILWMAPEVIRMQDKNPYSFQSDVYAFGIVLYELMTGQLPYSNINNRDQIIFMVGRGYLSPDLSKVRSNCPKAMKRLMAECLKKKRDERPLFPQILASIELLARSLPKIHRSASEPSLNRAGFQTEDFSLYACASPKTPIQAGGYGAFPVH
T1 sequence (P15056 whole entry V600E): as the sequence (P15056 whole entry G466V) above, with V466G, V600E counted along it

Usually DC50 stands for the concentration giving 50% degradation. As usually defined, the Dmax is the greatest extent of degradation seen. Low values mean a partial loss of target, high ones a fuller loss of target. For the compound `O=C1CC[C@H](N2Cc3cc(C4CCN(CC5CCN(c6ccc(-c7cnc8[nH]cc(C(=O)c9c(F)ccc(NS(=O)(=O)N%10CCC(F)(F)C%10)c9F)c8c7)cc6)CC5)CC4)ccc3C2=O)C(=O)N1` [Compound 232, N-{3-[5-(4-{4-[(4-{2-[(3S)-2,6-dioxopiperidin-3-yl]-1-oxo-2,3-dihydro-1H-isoindol-5-yl}piperidin-1-yl)methyl]piperidin-1-yl}phenyl)-1H-pyrrolo[2,3-b]pyridine-3-carbonyl]-2,4-difluorophenyl}-3,3-difluoropyrrolidine-1-sulfonamide], at BRAF V600E, the DC50 lay in the range of 5 to 50 nM and the greatest degradation seen (Dmax) was 35 to 70%. Also, on BRAF G466V, the DC50 is 1 to 10 nM and the Dmax was greater than 70%.

Regarding `O=C1CC[C@@H](N2Cc3cc(C4CCN(CC5CCN(c6ccc(-c7cnc8[nH]cc(C(=O)c9c(F)ccc(NS(=O)(=O)N%10CCC(F)(F)C%10)c9F)c8c7)cc6)CC5)CC4)ccc3C2=O)C(=O)N1` [Compound 233, N-{3-[5-(4-{4-[(4-{2-[(3R)-2,6-dioxopiperidin-3-yl]-1-oxo-2,3-dihydro-1H-isoindol-5-yl}piperidin-1-yl)methyl]piperidin-1-yl}phenyl)-1H-pyrrolo[2,3-b]pyridine-3-carbonyl]-2,4-difluorophenyl}-3,3-difluoropyrrolidine-1-sulfonamide], at BRAF V600E, the DC50 lay in the range of 5 to 50 nM and the maximal degradation (Dmax) lay within 35 to 70%. For the same compound, at BRAF G466V, the DC50 was 1 to 10 nM and the Dmax was greater than 70%.

Turning to `CCCS(=O)(=O)Nc1ccc(F)c(C(=O)c2c[nH]c3ncc(-c4ccc(N5CCC(CN6CCC(c7ccc8c(c7)CN([C@H]7CCC(=O)NC7=O)C8=O)CC6)CC5)cc4)cc23)c1F` [Compound 234, N-{3-[5-(4-{4-[(4-{2-[(3S)-2,6-dioxopiperidin-3-yl]-1-oxo-2,3-dihydro-1H-isoindol-5-yl}piperidin-1-yl)methyl]piperidin-1-yl}phenyl)-1H-pyrrolo[2,3-b]pyridine-3-carbonyl]-2,4-difluorophenyl}propane-1-sulfonamide], the DC50 at BRAF V600E is 5 to 50 nM; on BRAF G466V, less than 1 nM. Moreover, the Dmax is 35 to 70% on BRAF V600E and greater than 70% at BRAF G466V.

Turning to `CCCS(=O)(=O)Nc1ccc(F)c(C(=O)c2c[nH]c3ncc(-c4ccc(N5CCC(CN6CCC(c7ccc8c(c7)CN([C@@H]7CCC(=O)NC7=O)C8=O)CC6)CC5)cc4)cc23)c1F` [Compound 235, N-{3-[5-(4-{4-[(4-{2-[(3R)-2,6-dioxopiperidin-3-yl]-1-oxo-2,3-dihydro-1H-isoindol-5-yl}piperidin-1-yl)methyl]piperidin-1-yl}phenyl)-1H-pyrrolo[2,3-b]pyridine-3-carbonyl]-2,4-difluorophenyl}propane-1-sulfonamide], the values for the half-maximal degradation concentration (DC50) at BRAF V600E and on BRAF G466V were 5 to 50 nM and 1 to 10 nM, respectively. Also, the Dmax on BRAF V600E was 35 to 70%; on BRAF G466V, greater than 70%.

Turning to `CCCS(=O)(=O)Nc1ccc(F)c(C(=O)c2c[nH]c3ncc(-c4ccc(N5CCC(CN6CCC(c7ccc8c(c7)CN(C7CCC(=O)NC7=O)C8=O)CC6)CC5)cc4)cc23)c1F` (stereo not shown) [Compound 236, N-[3-(5-{4-[4-({4-[2-(2,6-dioxopiperidin-3-yl)-1-oxo-2,3-dihydro-1H-isoindol-5-yl]piperidin-1-yl}methyl)piperidin-1-yl]phenyl}-1H-pyrrolo[2,3-b]pyridine-3-carbonyl)-2,4-difluorophenyl]propane-1-sulfonamide], on BRAF V600E, the 50% degradation concentration (DC50) lay within 5 to 50 nM and the Dmax is 35 to 70%. Moreover, at BRAF G466V, the DC50 is less than 1 nM and the Dmax was greater than 70%.

In the case of `CCCS(=O)(=O)Nc1ccc(F)c(C(=O)c2c[nH]c3ncc(-c4ccc(N5CC6(CN(CC7CCN(c8cc9c(c(OC)c8)C(=O)N([C@H]8CCC(=O)NC8=O)C9)CC7)C6)C5)cc4)cc23)c1F` [Compound 237, N-{3-[5-(4-{6-[(1-{2-[(3S)-2,6-dioxopiperidin-3-yl]-7-methoxy-1-oxo-2,3-dihydro-1H-isoindol-5-yl}piperidin-4-yl)methyl]-2,6-diazaspiro[3.3]heptan-2-yl}phenyl)-1H-pyrrolo[2,3-b]pyridine-3-carbonyl]-2,4-difluorophenyl}propane-1-sulfonamide], at BRAF V600E, the DC50 fell in the range of 5 to 50 nM and the greatest degradation seen (Dmax) fell in the range of 35 to 70%. Also, on BRAF G466V, the 50% degradation concentration (DC50) was less than 1 nM and the greatest degradation seen (Dmax) was greater than 70%.

In the case of `CCCS(=O)(=O)Nc1ccc(F)c(C(=O)c2c[nH]c3ncc(-c4ccc(N5CC6(CN(CC7CCN(c8cc9c(c(OC)c8)C(=O)N([C@@H]8CCC(=O)NC8=O)C9)CC7)C6)C5)cc4)cc23)c1F` [Compound 238, N-{3-[5-(4-{6-[(1-{2-[(3R)-2,6-dioxopiperidin-3-yl]-7-methoxy-1-oxo-2,3-dihydro-1H-isoindol-5-yl}piperidin-4-yl)methyl]-2,6-diazaspiro[3.3]heptan-2-yl}phenyl)-1H-pyrrolo[2,3-b]pyridine-3-carbonyl]-2,4-difluorophenyl}propane-1-sulfonamide], on BRAF V600E, the DC50 fell in the range of 5 to 50 nM and the Dmax lay in the range of 35 to 70%. Also, on BRAF G466V, the half-maximal degradation concentration (DC50) was in the range of 1 to 10 nM and the Dmax was greater than 70%.

Consider `C[C@H]1C[C@@H](CN2CCC(c3ccc4c(c3)CN([C@H]3CCC(=O)NC3=O)C4=O)CC2)CCN1c1ccc(-c2cnc3[nH]cc(C(=O)c4c(F)ccc(NS(=O)(=O)N5CC[C@@H](F)C5)c4F)c3c2)cc1` [Compound 239, (3R)-N-[3-(5-{4-[(2S,4S)-4-[(4-{2-[(3S)-2,6-dioxopiperidin-3-yl]-1-oxo-2,3-dihydro-1H-isoindol-5-yl}piperidin-1-yl)methyl]-2-methylpiperidin-1-yl]phenyl}-1H-pyrrolo[2,3-b]pyridine-3-carbonyl)-2,4-difluorophenyl]-3-fluoropyrrolidine-1-sulfonamide], for which the values for the half-maximal degradation concentration (DC50) on BRAF V600E and on BRAF G466V were 5 to 50 nM and 1 to 10 nM, respectively. The Dmax on BRAF V600E was 35 to 70%; at BRAF G466V it was greater than 70%.

For the compound `C[C@H]1C[C@@H](CN2CCC(c3ccc4c(c3)CN([C@@H]3CCC(=O)NC3=O)C4=O)CC2)CCN1c1ccc(-c2cnc3[nH]cc(C(=O)c4c(F)ccc(NS(=O)(=O)N5CC[C@@H](F)C5)c4F)c3c2)cc1` [Compound 240, (3R)-N-[3-(5-{4-[(2S,4S)-4-[(4-{2-[(3R)-2,6-dioxopiperidin-3-yl]-1-oxo-2,3-dihydro-1H-isoindol-5-yl}piperidin-1-yl)methyl]-2-methylpiperidin-1-yl]phenyl}-1H-pyrrolo[2,3-b]pyridine-3-carbonyl)-2,4-difluorophenyl]-3-fluoropyrrolidine-1-sulfonamide], the figures for the DC50 at BRAF V600E and at BRAF G466V were 5 to 50 nM and 1 to 10 nM, respectively. Further, the Dmax was 35 to 70% at BRAF V600E and greater than 70% on BRAF G466V.

For `C[C@@H]1C[C@H](CN2CCC(c3ccc4c(c3)CN([C@H]3CCC(=O)NC3=O)C4=O)CC2)CCN1c1ccc(-c2cnc3[nH]cc(C(=O)c4c(F)ccc(NS(=O)(=O)N5CC[C@@H](F)C5)c4F)c3c2)cc1` [Compound 241, (3R)-N-[3-(5-{4-[(2R,4R)-4-[(4-{2-[(3S)-2,6-dioxopiperidin-3-yl]-1-oxo-2,3-dihydro-1H-isoindol-5-yl}piperidin-1-yl)methyl]-2-methylpiperidin-1-yl]phenyl}-1H-pyrrolo[2,3-b]pyridine-3-carbonyl)-2,4-difluorophenyl]-3-fluoropyrrolidine-1-sulfonamide], at BRAF V600E, the DC50 lay within 5 to 50 nM and the Dmax fell in the range of 35 to 70%. Besides, at BRAF G466V, the half-maximal degradation concentration (DC50) lay within 1 to 10 nM and the Dmax is greater than 70%.

As to `C[C@@H]1C[C@H](CN2CCC(c3ccc4c(c3)CN([C@@H]3CCC(=O)NC3=O)C4=O)CC2)CCN1c1ccc(-c2cnc3[nH]cc(C(=O)c4c(F)ccc(NS(=O)(=O)N5CC[C@@H](F)C5)c4F)c3c2)cc1` [Compound 242, (3R)-N-[3-(5-{4-[(2R,4R)-4-[(4-{2-[(3R)-2,6-dioxopiperidin-3-yl]-1-oxo-2,3-dihydro-1H-isoindol-5-yl}piperidin-1-yl)methyl]-2-methylpiperidin-1-yl]phenyl}-1H-pyrrolo[2,3-b]pyridine-3-carbonyl)-2,4-difluorophenyl]-3-fluoropyrrolidine-1-sulfonamide], on BRAF V600E, the half-maximal degradation concentration (DC50) was in the range of 5 to 50 nM and the greatest degradation seen (Dmax) fell in the range of 35 to 70%. Moreover, at BRAF G466V, the DC50 was in the range of 1 to 10 nM and the greatest degradation seen (Dmax) was greater than 70%.

Take `CCCS(=O)(=O)Nc1ccc(F)c(C(=O)c2c[nH]c3ncc(-c4ccc(N5CCN(CC6CCN(c7ccc8c(c7)CN([C@H]7CCC(=O)NC7=O)C8=O)CC6)CC5)cc4)cc23)c1F` [Compound 243, N-{3-[5-(4-{4-[(1-{2-[(3S)-2,6-dioxopiperidin-3-yl]-1-oxo-2,3-dihydro-1H-isoindol-5-yl}piperidin-4-yl)methyl]piperazin-1-yl}phenyl)-1H-pyrrolo[2,3-b]pyridine-3-carbonyl]-2,4-difluorophenyl}propane-1-sulfonamide]: on BRAF V600E, the DC50 was 5 to 50 nM and the maximal degradation (Dmax) fell in the range of 35 to 70%. At BRAF G466V, the DC50 lay in the range of 1 to 10 nM and the maximal degradation (Dmax) is greater than 70%.

On to `CCCS(=O)(=O)Nc1ccc(F)c(C(=O)c2c[nH]c3ncc(-c4ccc(N5CCN(CC6CCN(c7ccc8c(c7)CN(C7CCC(=O)NC7=O)C8=O)CC6)CC5)cc4)cc23)c1F` (stereo not shown) [Compound 244, N-[3-(5-{4-[4-({1-[2-(2,6-dioxopiperidin-3-yl)-1-oxo-2,3-dihydro-1H-isoindol-5-yl]piperidin-4-yl}methyl)piperazin-1-yl]phenyl}-1H-pyrrolo[2,3-b]pyridine-3-carbonyl)-2,4-difluorophenyl]propane-1-sulfonamide], for which the DC50 at BRAF V600E was 5 to 50 nM; at BRAF G466V, 1 to 10 nM. Moreover, the results for the Dmax at BRAF V600E and at BRAF G466V were 35 to 70% and greater than 70%, respectively.
